According to PMC10266688 (PLOS ONE, 2023):
Several values for one entry are separate records, joined by “and”; a condition that tells them apart may be missing. Equal entries are not always repeated. Where two headings read alike, the source gives them in different places.

Experiment: Single administration dose escalation study (MTD, body weight, clinical observations), female CD1 mice
Type: in vivo
Conditions: for Body weight change, Mean / Body weight change: day 7 vs initial weight; for Body weight change, Mean: group mean; for MTD at 7 days: mouse, in vivo, female CD1 mice
Description: Mice were dosed on day 1 and clinical condition recorded at 0.5 h, 2 h, 4 h, 6 h, and days 1–7 (S6 Table).
Gc - general condition observation
X - treatment with compound or vehicle

For `N#Cc1ccc(/C=C2/C(=O)/C(=C/c3ccc(C#N)cc3)C23CCNCC3)cc1` [Up284], the “Body weight, Mean” value (IV 60 mg/kg single dose, day 3, group mean) was 24.73 g, the Body weight (IV 60 mg/kg single dose, day 3, individual mice, 60 mg/kg) was 26.5 g and 23.7 g and 24.0 g and the “Body weight, Mean” value (IV 60 mg/kg single dose, day 4, group mean) was 24.93 g. The Body weight (IV 60 mg/kg single dose, day 4, individual mice, 60 mg/kg) was 26.6 g and 23.5 g and 24.7 g, the “Body weight, Mean” value (IV 60 mg/kg single dose, day 5, group mean) was 24.83 g and the Body weight (IV 60 mg/kg single dose, day 5, individual mice, 60 mg/kg) was 26.5 g and 23.3 g and 24.7 g. For the same compound, the “Body weight, Mean” value (IV 60 mg/kg single dose, day 6, group mean) was 25.30 g, the Body weight (IV 60 mg/kg single dose, day 6, individual mice, 60 mg/kg) was 26.7 g and 24.1 g and 25.1 g and the “Body weight, Mean” value (IV 60 mg/kg single dose, day 7, group mean) was 25.27 g. For the same compound, the Body weight (IV 60 mg/kg single dose, day 7, individual mice, 60 mg/kg) was 26.6 g and 23.9 g and 25.3 g, the “Body weight change, Mean” value (IV 60 mg/kg single dose) was 3.48% and the Body weight change (IV 60 mg/kg single dose, individual mice, 60 mg/kg) was 2.31% and 5.29% and 2.85%. It also gave a Clinical observation (IV 60 mg/kg, day 0, 0.5 h, individual mice, 60 mg/kg) of 0, a Clinical observation (IV 60 mg/kg, day 0, 2 h, individual mice) of 0 and a Clinical observation (IV 60 mg/kg, day 0, 4 h, individual mice) of 0. It also gave a Clinical observation (IV 60 mg/kg, day 0, 6 h, individual mice) of 0, a Clinical observation (IV 60 mg/kg, day 0, time 0, individual mice) of 0 and a Clinical observation (IV 60 mg/kg, day 1, individual mice) of 0. For the same compound, the Clinical observation (IV 60 mg/kg, day 2, individual mice) was 0, the Clinical observation (IV 60 mg/kg, day 3, individual mice) was 0 and the Clinical observation (IV 60 mg/kg, day 4, individual mice) was 0. The Clinical observation (IV 60 mg/kg, day 5, individual mice) was 0, the Clinical observation (IV 60 mg/kg, day 6, individual mice) was 0 and the Clinical observation (IV 60 mg/kg, day 7, individual mice) was 0. For the same compound, the “Body weight, Mean” value (PO 100 mg/kg single dose, day 0, group mean) was 24.70 g, the Body weight (PO 100 mg/kg single dose, day 0, individual mice, 100 mg/kg) was 27.5 g and 24.7 g and 21.9 g and the “Body weight, Mean” value (PO 100 mg/kg single dose, day 1, group mean) was 24.30 g. For the same compound, the Body weight (PO 100 mg/kg single dose, day 1, individual mice, 100 mg/kg) was 26.4 g and 24.4 g and 22.1 g, the “Body weight, Mean” value (PO 100 mg/kg single dose, day 2, group mean) was 24.77 g and the Body weight (PO 100 mg/kg single dose, day 2, individual mice, 100 mg/kg) was 27.0 g and 24.5 g and 22.8 g. The “Body weight, Mean” value (PO 100 mg/kg single dose, day 3, group mean) was 25.10 g, the Body weight (PO 100 mg/kg single dose, day 3, individual mice, 100 mg/kg) was 27.2 g and 25.0 g and 23.1 g and the “Body weight, Mean” value (PO 100 mg/kg single dose, day 4, group mean) was 25.30 g. For the same compound, the Body weight (PO 100 mg/kg single dose, day 4, individual mice, 100 mg/kg) was 27.9 g and 24.5 g and 23.5 g, the “Body weight, Mean” value (PO 100 mg/kg single dose, day 5, group mean) was 24.77 g and the Body weight (PO 100 mg/kg single dose, day 5, individual mice, 100 mg/kg) was 26.9 g and 24.4 g and 23.0 g. For the same compound, the “Body weight, Mean” value (PO 100 mg/kg single dose, day 6, group mean) was 25.50 g, the Body weight (PO 100 mg/kg single dose, day 6, individual mice, 100 mg/kg) was 28.4 g and 25.0 g and 23.1 g and the “Body weight, Mean” value (PO 100 mg/kg single dose, day 7, group mean) was 26.10 g. The Body weight (PO 100 mg/kg single dose, day 7, individual mice, 100 mg/kg) was 29.3 g and 25.6 g and 23.4 g, the “Body weight change, Mean” value (PO 100 mg/kg single dose) was 5.68% and the Body weight change (PO 100 mg/kg single dose, individual mice, 100 mg/kg) was 6.55% and 3.64%. It also gave a Clinical observation (PO 100 mg/kg, day 0, 0.5 h, individual mice) of 0, a Clinical observation (PO 100 mg/kg, day 0, 2 h, individual mice) of 0 and a Clinical observation (PO 100 mg/kg, day 0, 4 h, individual mice) of 0. It also gave a Clinical observation (PO 100 mg/kg, day 0, 6 h, individual mice) of 0, a Clinical observation (PO 100 mg/kg, day 0, time 0, individual mice) of 0 and a Clinical observation (PO 100 mg/kg, day 1, individual mice) of 0. The Clinical observation (PO 100 mg/kg, day 2, individual mice) was 0, the Clinical observation (PO 100 mg/kg, day 3, individual mice) was 0 and the Clinical observation (PO 100 mg/kg, day 4, individual mice) was 0. For the same compound, the Clinical observation (PO 100 mg/kg, day 5, individual mice) was 0, the Clinical observation (PO 100 mg/kg, day 6, individual mice) was 0 and the Clinical observation (PO 100 mg/kg, day 7, individual mice) was 0. The “Body weight, Mean” value (PO 200 mg/kg single dose, day 0, group mean) was 24.70 g, the “Body weight, Mean” value (PO 200 mg/kg single dose, day 1, group mean) was 24.90 g and the “Body weight, Mean” value (PO 200 mg/kg single dose, day 2, group mean) was 25.17 g. For the same compound, the “Body weight, Mean” value (PO 200 mg/kg single dose, day 3, group mean) was 25.07 g, the “Body weight, Mean” value (PO 200 mg/kg single dose, day 4, group mean) was 25.40 g and the “Body weight, Mean” value (PO 200 mg/kg single dose, day 5, group mean) was 25.33 g. The “Body weight, Mean” value (PO 200 mg/kg single dose, day 6, group mean) was 25.63 g, the “Body weight, Mean” value (PO 200 mg/kg single dose, day 7, group mean) was 25.87 g and the Body weight (PO 200 mg/kg single dose, day 7, individual mice, 200 mg/kg) was 26.3 g. For the same compound, the “Body weight change, Mean” value (PO 200 mg/kg single dose) was 4.87%, the Body weight change (PO 200 mg/kg single dose, individual mice, 200 mg/kg) was 8.68% and 0.00% and 5.93% and the Clinical observation (PO 200 mg/kg, day 0, 0.5 h, individual mice) was 0. The Clinical observation (PO 200 mg/kg, day 0, 2 h, individual mice) was 0, the Clinical observation (PO 200 mg/kg, day 0, 4 h, individual mice) was 0 and the Clinical observation (PO 200 mg/kg, day 0, 6 h, individual mice) was 0. For the same compound, the Clinical observation (PO 200 mg/kg, day 0, time 0, individual mice) was 0, the Clinical observation (PO 200 mg/kg, day 1, individual mice) was 0 and the Clinical observation (PO 200 mg/kg, day 2, individual mice) was 0. The Clinical observation (PO 200 mg/kg, day 3, individual mice) was 0, the Clinical observation (PO 200 mg/kg, day 4, individual mice) was 0 and the Clinical observation (PO 200 mg/kg, day 5, individual mice) was 0. For the same compound, the Clinical observation (PO 200 mg/kg, day 6, individual mice) was 0, the Clinical observation (PO 200 mg/kg, day 7, individual mice) was 0 and the MTD at 7 days (ip, read-out: MTD, single IP dose) was 40 mg/kg. For the same compound, the MTD at 7 days (iv, read-out: MTD, single IV dose (not reached at maximum feasible dose)) was ≥ 60 mg/kg and the MTD at 7 days (po, read-out: MTD, single PO dose (not reached at maximum feasible dose)) was ≥ 200 mg/kg.
